Holding throughout (format): biochemical
The target of assay [1] is T1, SIK3 (Homo sapiens, UniProt Q9Y2K2).
T1 construct: purchased SignalChem S12-11G-100
In words: ADP-Glo kinase assay, SIK3. The procedure:
(§1) The ADP-Glo™ kinase assay is a luminescent technology assay which measures the ADP formed from a kinase reaction. […] In a second step the kinase reactions are terminated and all the remaining ATP is depleted. In a final step the ADP is converted into ATP and this newly synthesized ATP is measured by using a luciferase/luciferin reaction. The generated light is measured using an Envision plate reader, wherein the luminescent signal obtained positively correlates with the kinase activity.
(§2) 1% DMSO and 10 μM staurosporine final concentrations are used as negative and positive controls.
(§3) 2 μL enzyme-substrate mixture is added to the assay plates.
(§4) The reaction is started by adding 2 μL diluted ATP on the assay plates. Plates are centrifuged for a few seconds at 1000 rpm and gently shaken for […] followed by an incubation at RT for 120 min.
(§5) The reactions are stopped and the unconsumed ATP is depleted by adding 5 μL ADP-Glo Reagent (Promega, Cat #V9120) to the reaction. The plates are centrifuged for a few seconds at 1000 rpm and incubated at RT for 40 min (ATP depletion).
(§6) The ADP is converted to ATP and luciferase and luciferin is introduced to detect ATP by adding 10 μL Kinase Detection Reagent (Promega, Cat #V913B+V914r) to the reaction. The plates are centrifuged for a few seconds at 1000 rpm and incubated at RT for 30 min (ADP detection).
(§7) Luminescence is measured on an Envision plate reader (PerkinElmer Inc.).

In assay [2] the target is T2, SIK2 (Homo sapiens, UniProt Q9H0K1).
T2 construct: purchased ThermoFisher Scientific PV4792
T2 sequence (Q9H0K1 whole entry): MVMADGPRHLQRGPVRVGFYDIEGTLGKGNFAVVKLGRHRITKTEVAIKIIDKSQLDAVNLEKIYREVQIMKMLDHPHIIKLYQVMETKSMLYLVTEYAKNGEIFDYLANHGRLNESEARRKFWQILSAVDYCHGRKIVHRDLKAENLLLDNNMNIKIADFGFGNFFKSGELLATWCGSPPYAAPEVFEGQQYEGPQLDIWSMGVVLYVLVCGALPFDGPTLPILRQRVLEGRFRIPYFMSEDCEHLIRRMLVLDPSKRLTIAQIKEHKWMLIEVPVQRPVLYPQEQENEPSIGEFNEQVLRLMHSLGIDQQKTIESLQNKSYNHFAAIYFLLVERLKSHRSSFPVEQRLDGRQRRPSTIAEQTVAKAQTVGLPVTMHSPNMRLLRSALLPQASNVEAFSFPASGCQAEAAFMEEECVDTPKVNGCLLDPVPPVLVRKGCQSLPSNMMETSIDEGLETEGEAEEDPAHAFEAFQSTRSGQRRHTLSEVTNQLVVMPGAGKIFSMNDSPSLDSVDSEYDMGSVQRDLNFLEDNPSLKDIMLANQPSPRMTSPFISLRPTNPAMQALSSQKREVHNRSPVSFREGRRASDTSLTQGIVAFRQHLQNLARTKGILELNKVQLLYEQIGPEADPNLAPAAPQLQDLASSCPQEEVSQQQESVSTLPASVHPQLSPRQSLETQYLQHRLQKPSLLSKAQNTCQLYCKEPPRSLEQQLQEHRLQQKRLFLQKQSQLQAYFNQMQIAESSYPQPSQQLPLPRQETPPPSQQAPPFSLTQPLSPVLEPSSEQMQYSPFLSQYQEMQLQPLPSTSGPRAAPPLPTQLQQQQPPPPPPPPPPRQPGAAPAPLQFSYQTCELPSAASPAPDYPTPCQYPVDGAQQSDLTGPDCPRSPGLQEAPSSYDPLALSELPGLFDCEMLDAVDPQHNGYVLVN
Put plainly: ADP-Glo kinase assay, SIK2. On the procedure: as §1, §2, §3, §4, §5, §6, §7
(In general: ADP-Glo turns the ADP formed in a reaction into a luminescent signal.)

For assay [3], the target named is T3, SIK1 (Homo sapiens, UniProt P57059).
T3 construct: purchased Carna Biosciences 02-131
T3 sequence (P57059 whole entry): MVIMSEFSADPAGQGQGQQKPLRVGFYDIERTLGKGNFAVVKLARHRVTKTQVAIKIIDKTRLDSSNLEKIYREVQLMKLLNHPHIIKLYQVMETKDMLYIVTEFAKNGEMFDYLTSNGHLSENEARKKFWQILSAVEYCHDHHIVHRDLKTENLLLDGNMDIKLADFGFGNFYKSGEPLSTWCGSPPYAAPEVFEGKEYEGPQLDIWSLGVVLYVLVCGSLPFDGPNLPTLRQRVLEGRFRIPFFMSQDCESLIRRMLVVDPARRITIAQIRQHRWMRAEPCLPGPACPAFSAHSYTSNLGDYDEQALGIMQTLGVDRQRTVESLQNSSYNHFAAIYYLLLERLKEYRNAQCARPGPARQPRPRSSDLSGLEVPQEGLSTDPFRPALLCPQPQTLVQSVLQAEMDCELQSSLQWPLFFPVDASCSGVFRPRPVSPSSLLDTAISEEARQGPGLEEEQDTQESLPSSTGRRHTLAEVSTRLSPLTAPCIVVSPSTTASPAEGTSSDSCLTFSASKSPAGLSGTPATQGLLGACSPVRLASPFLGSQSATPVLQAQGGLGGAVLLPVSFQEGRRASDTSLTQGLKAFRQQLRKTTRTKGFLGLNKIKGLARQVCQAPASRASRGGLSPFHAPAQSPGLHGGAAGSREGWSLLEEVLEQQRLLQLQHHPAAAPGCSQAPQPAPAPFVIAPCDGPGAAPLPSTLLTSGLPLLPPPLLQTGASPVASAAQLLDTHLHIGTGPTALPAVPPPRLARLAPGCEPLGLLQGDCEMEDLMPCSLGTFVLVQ
Put plainly: ADP-Glo kinase assay, SIK1. On the procedure:
as §1, §2, §3, §4, §5, §6, §7

The record followed here is US12391679B2, “Benzamide-substituted bicyclic imidazo- and pyrazolo-fused -pyridine, -pyrimide, and -pyridazine compounds for treatment of inflammatory diseases” (ONCO3R Therapeutics BV, priority 2019, dated 2025).

T1 sequence (Q9Y2K2 59-365 limits assumed): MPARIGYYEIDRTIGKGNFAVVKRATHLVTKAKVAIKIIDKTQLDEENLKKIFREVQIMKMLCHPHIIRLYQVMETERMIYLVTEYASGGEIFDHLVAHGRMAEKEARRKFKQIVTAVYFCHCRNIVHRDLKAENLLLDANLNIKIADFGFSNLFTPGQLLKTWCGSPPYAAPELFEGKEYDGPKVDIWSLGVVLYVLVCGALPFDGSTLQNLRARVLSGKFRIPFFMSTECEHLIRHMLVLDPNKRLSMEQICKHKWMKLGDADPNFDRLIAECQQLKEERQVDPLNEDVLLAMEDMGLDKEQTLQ

Turning to `COc1cc(-c2cnc3cc(C(C)(C)C#N)ccn23)cc(OC(F)F)c1C(=O)NCc1ccn(C)n1` [Cpd 52, 4-[7-(1-cyano-1-methyl-ethyl)imidazo[1,2-a]pyridin-3-yl]-2-(difluoromethoxy)-6-methoxy-N-[(1-methylpyrazol-3-yl)methyl]benzamide], the concentration for half-maximal inhibition (IC50) in assay [1], in assay [2] and in assay [3] was more than 500 nM in each case.

As to `COc1cc(-c2cnc3cc(C(C)(C)C(O)C(C)C)ccn23)cc(OC(F)F)c1C(=O)NC1CC1` (stereo not drawn) [Cpd 202, N-cyclopropyl-2-(difluoromethoxy)-4-[7-(2-hydroxy-1,1,3-trimethyl-butyl)imidazo[1,2-a]pyridin-3-yl]-6-methoxy-benzamide], the figures for the IC50 in assay [1], in assay [2] and in assay [3] were 10 to 100 nM, more than 500 nM and more than 500 nM, respectively.

For `COc1cc(-c2cnc3cc(C4CCCNC4)ccn23)cc(OC(F)F)c1C(=O)NC1CC1` (stereo not drawn) [Cpd 65, N-cyclopropyl-2-(difluoromethoxy)-6-methoxy-4-[7-(3-piperidyl)imidazo[1,2-a]pyridin-3-yl]benzamide], the IC50 is 0.01 to 10 nM in assay [1], 10 to 100 nM in assay [2] and more than 500 nM in assay [3].

As for `COc1cc(-c2cnc3cc(C4CCOCC4)ccn23)cc(OC)c1C(=O)NCC(F)(F)F` [Cpd 37, 2,6-dimethoxy-4-(7-tetrahydropyran-4-ylimidazo[1,2-a]pyridin-3-yl)-N-(2,2,2-trifluoroethyl)benzamide], the IC50 in assay [1] was 10 to 100 nM; in assay [2] it was 100 to 500 nM; in assay [3], more than 500 nM.

In the case of `COc1cc(-c2cnc3cc(C(C)(C)N)ccn23)cc(OC)c1C(=O)NCC(F)(F)F` [Cpd 55, 4-[7-(1-amino-1-methyl-ethyl)imidazo[1,2-a]pyridin-3-yl]-2,6-dimethoxy-N-(2,2,2-trifluoroethyl)benzamide], the half-maximal inhibitory concentration (IC50) is 10 to 100 nM in assay [1], more than 500 nM in assay [2] and more than 500 nM in assay [3].

In the case of `COc1cc(-c2cnc3cc(C(C)(C)C#N)ccn23)cc(OC(F)F)c1C(=O)N1CC2(COC2)C1` [Cpd 51, 2-[3-[3-(difluoromethoxy)-5-methoxy-4-(2-oxa-6-azaspiro[3.3]heptane-6-carbonyl)phenyl]imidazo[1,2-a]pyridin-7-yl]-2-methyl-propanenitrile], the concentration for half-maximal inhibition (IC50) in assay [1] is 10 to 100 nM; in assay [2] it was more than 500 nM; in assay [3], more than 500 nM.

On to `COc1cc(-c2cnc3cc(C(C)(C)C#N)ccn23)cnc1C(=O)NCC(F)(F)F` [Cpd 127, 5-[7-(1-cyano-1-methyl-ethyl)imidazo[1,2-a]pyridin-3-yl]-3-methoxy-N-(2,2,2-trifluoroethyl)pyridine-2-carboxamide], for which the IC50 in assay [1] is 100 to 500 nM; in assay [2], more than 500 nM; in assay [3], more than 500 nM.

Turning to `COc1cc(-c2cnc3cc(C(C)O)ccn23)cc(OC)c1C(=O)NCC(F)(F)F` (stereo not drawn) [Cpd 54, 4-[7-(1-hydroxyethyl)imidazo[1,2-a]pyridin-3-yl]-2,6-dimethoxy-N-(2,2,2-trifluoroethyl)benzamide], the concentration for half-maximal inhibition (IC50) in assay [1] was 10 to 100 nM; in assay [2] it was more than 500 nM; in assay [3], more than 500 nM.

For the compound `COc1cc(-c2cnc3cc(C4CCOCC4)ncn23)cc(OC(F)F)c1C(=O)NC1CC1` [Cpd 109, N-cyclopropyl-2-(difluoromethoxy)-6-methoxy-4-(7-tetrahydropyran-4-ylimidazo[1,2-c]pyrimidin-3-yl)benzamide], the IC50 in assay [1], in assay [2] and in assay [3] was more than 500 nM each time.

As to `COc1cc(-c2cnc3cc(C4(Cl)COC4)ccn23)cc(OC(F)F)c1C(=O)NC1CC1` [Cpd 217, 4-[7-(3-chlorooxetan-3-yl)imidazo[1,2-a]pyridin-3-yl]-N-cyclopropyl-2-(difluoromethoxy)-6-methoxy-benzamide], the IC50 in assay [1] was 10 to 100 nM; in assay [2] it was 100 to 500 nM; in assay [3], more than 500 nM.

With `COc1cc(-c2cnc3cc(C(C)N4CCO[C@H](CO)C4)ccn23)cc(OC(F)F)c1C(=O)NC1CC1` (stereo partly drawn) [Cpd 157, N-cyclopropyl-2-(difluoromethoxy)-4-[7-[1-[(2S)-2-(hydroxymethyl)morpholin-4-yl]ethyl]imidazo[1,2-a]pyridin-3-yl]-6-methoxy-benzamide], the IC50 in assay [1] was 10 to 100 nM; in assay [2], more than 500 nM; in assay [3], more than 500 nM.

Regarding `COc1cc(-c2cnc3cc(C(C)N4CC(O)C4)ccn23)cc(OC(F)F)c1C(=O)NC1CC1` (stereo not drawn) [Cpd 155, N-cyclopropyl-2-(difluoromethoxy)-4-[7-[1-(3-hydroxyazetidin-1-yl)ethyl]imidazo[1,2-a]pyridin-3-yl]-6-methoxy-benzamide], the IC50 was 10 to 100 nM in assay [1], more than 500 nM in assay [2] and more than 500 nM in assay [3].

As for `CCN(C)C(=O)c1c(OC)cc(-c2cnc3cc(C(C)(C)C#N)ccn23)cc1OC(F)F` [Cpd 40, 4-[7-(1-cyano-1-methyl-ethyl)imidazo[1,2-a]pyridin-3-yl]-2-(difluoromethoxy)-N-ethyl-6-methoxy-N-methyl-benzamide], the IC50 in assay [1], in assay [2] and in assay [3] was more than 500 nM throughout.

In the case of `COc1cc(-c2cnc3cc(C(C)(C)C#N)ccn23)cc(OC(F)F)c1C(=O)N1CCC(F)(F)C1` [Cpd 47, 2-[3-[3-(difluoromethoxy)-4-(3,3-difluoropyrrolidine-1-carbonyl)-5-methoxy-phenyl]imidazo[1,2-a]pyridin-7-yl]-2-methyl-propanenitrile], the concentration for half-maximal inhibition (IC50) in assay [1] is 10 to 100 nM; in assay [2] it was more than 500 nM; in assay [3], more than 500 nM.

With `COc1cc(-c2cnc3cc(C4CCCN4C(C)=O)ccn23)cc(OC(F)F)c1C(=O)NC1CC1` (stereo not drawn) [Cpd 198, 4-[7-(1-acetylpyrrolidin-2-yl)imidazo[1,2-a]pyridin-3-yl]-N-cyclopropyl-2-(difluoromethoxy)-6-methoxy-benzamide], the IC50 is 10 to 100 nM in assay [1], more than 500 nM in assay [2] and more than 500 nM in assay [3].

Regarding `COc1cc(-c2cnc3cc(C(C)(C)C#N)ccn23)cc(OC(F)F)c1C(=O)N1CC(C(F)(F)F)C1` [Cpd 76, 2-[3-[3-(difluoromethoxy)-5-methoxy-4-[3-(trifluoromethyl)azetidine-1-carbonyl]phenyl]imidazo[1,2-a]pyridin-7-yl]-2-methyl-propanenitrile], the IC50 in assay [1] is 0.01 to 10 nM; in assay [2], 100 to 500 nM; in assay [3], more than 500 nM.

On to `COc1cc(-c2cnc3cc(C4CN(C(=O)OC(C)(C)C)C4)ccn23)cc(OC)c1C(=O)NCC(F)(F)F` [Cpd 58, tert-butyl 3-[3-[3,5-dimethoxy-4-(2,2,2-trifluoroethylcarbamoyl)phenyl]imidazo[1,2-a]pyridin-7-yl]azetidine-1-carboxylate], for which the IC50 in assay [1] was 10 to 100 nM; in assay [2], 100 to 500 nM; in assay [3], 100 to 500 nM.

On to `COc1cc(-c2cnc3cc(C(C)(C)C#N)ccn23)cc(OC(F)F)c1C(=O)N1CCOCC1` [Cpd 48, 2-[3-[3-(difluoromethoxy)-5-methoxy-4-(morpholine-4-carbonyl)phenyl]imidazo[1,2-a]pyridin-7-yl]-2-methyl-propanenitrile], for which the half-maximal inhibitory concentration (IC50) in assay [1], in assay [2] and in assay [3] was more than 500 nM each time.

In the case of `COc1cc(-c2cnc3cc(C4(C(=O)N5CCOCC5)CC4)ccn23)cc(OC(F)F)c1C(=O)NC1CC1` [Cpd 141, N-cyclopropyl-2-(difluoromethoxy)-6-methoxy-4-[7-[1-(morpholine-4-carbonyl)cyclopropyl]imidazo[1,2-a]pyridin-3-yl]benzamide], the concentration for half-maximal inhibition (IC50) is 100 to 500 nM in assay [1], more than 500 nM in assay [2] and more than 500 nM in assay [3].

Turning to `COc1cc(-c2cnc3cc(C(F)(F)C(=O)O)ccn23)cc(OC(F)F)c1C(=O)NC1CC1` [Cpd 132, 2-[3-[4-(cyclopropylcarbamoyl)-3-(difluoromethoxy)-5-methoxy-phenyl]imidazo[1,2-a]pyridin-7-yl]-2,2-difluoro-acetic acid], the IC50 lay in the range of 0.01 to 10 nM in assay [1], 100 to 500 nM in assay [2] and 100 to 500 nM in assay [3].

Consider `COc1cc(-c2cnc3cc(C(C)(C)C#N)ccn23)cc(OC(F)F)c1C(=O)NC1CS(=O)(=O)C1` [Cpd 73, 4-[7-(1-cyano-1-methyl-ethyl)imidazo[1,2-a]pyridin-3-yl]-2-(difluoromethoxy)-N-(1,1-dioxothietan-3-yl)-6-methoxy-benzamide], for which the IC50 in assay [1] is 10 to 100 nM; in assay [2], more than 500 nM; in assay [3], more than 500 nM.

As to `COC(=O)C(C)(C#N)c1ccn2c(-c3cc(OC)c(C(=O)NC4CC4)c(OC(F)F)c3)cnc2c1` (stereo not drawn) [Cpd 184, methyl 2-cyano-2-[3-[4-(cyclopropylcarbamoyl)-3-(difluoromethoxy)-5-methoxy-phenyl]imidazo[1,2-a]pyridin-7-yl]propanoate], the half-inhibitory concentration (IC50) in assay [1], in assay [2] and in assay [3] was more than 500 nM throughout.

As usually defined, the IC50 is the concentration at which inhibition is half-maximal. Low readings indicate greater potency in that assay, high ones weaker potency in that assay.
